According to patent US4950647A, “T cell immunopotentiator” (Nucleic Acid Research Institute, priority 1988, dated 1990):
“Also recorded” adds a separate entry of the source.

Columns and labels:
[1] = system: human lymphocytes (peripheral blood mononuclear cells); experiment: Concanavalin A (Con A) induced lymphocyte proliferation; format: cell-based; design: 3H-thymidine incorporation in Con A-stimulated cultures: unit not given here
Description: (§1) Peripheral blood mononuclear cells were isolated from heparinized peripheral blood of normal healthy donors as described in Sharma, B. and S. Gupta, "Antigen-specific primary cytotoxic T lymphocyte response in acquired immune deficiency syndrome (AIDS) and AIDS related complex", Clin. Exp. Immunol., 62:296, 1985. Briefly, blood was diluted 1:1 with Hanks balanced salt solution (HBSS). Peripheral blood mononuclear cells were separated on a Ficoll-Hypaque gradient. The peripheral blood mononuclear cells recovered from the interface were washed three times with HBSS and resuspended in RPMI-1640 containing 100 U/ml penicillin, 100 μg/ml streptomycin 2mM L-glutamine (GIBCO, Grand Island, N.Y.), and 10% heat-inactivated pooled A serum (Irvine Scientific, Irvine, Calif.), hereafter referred as complete medium (CM).
The ability of the compound 6-amino-(2-deoxy-α-D-erythropentofuranosyl)-imidazo[4,5,-C]pyridin-4-one to modulate lymphocyte response to plant mitogens was determined by the modified procedure of Sharma, B., O. Kohashi, M. R. Mickey, and P. T. Terasaki, "Effect of water soluble adjuvants on in vitro lymphocyte immunization", Cancer Res. 35:666, 1975. Peripheral blood mononuclear cells were cultured for 72-96 hr with phytohemagglutinin (Difco, Detroit, Mich.), Concanavalin A (Calbiochem, Calif.) or Pokeweed mitogen (GIBCO, Grand Island, N.Y.) in the presence and absence of 6-amino-(2-deoxy-α-D-erythro-pentofuranosyl)-imidazo[4,5,-C]pyridin- 4-one. The culture were set up in quadruplicate and pulsed with [^3 H]-thymidine for 16 hr and the [^3 H] thymidine incorporation was determined.
Peripheral blood mononuclear cells were cultured with different concentrations of Concanavalin A in the presence and absence of 6-amino-(2-deoxy-α-D-erythro-pentofuranosyl)-imidazo[4,5,-C]pyridin- 4-one. Lymphocyte proliferation was determined by ^3 H-thymidine incorporation.

[2] = system: B cells (human peripheral blood mononuclear cells); experiment: Staphylococcus aureus cowan (SAC) induced B cell proliferation; format: cell-based; design: 3H-thymidine incorporation: unit not given here
Description: as §1
Peripheral blood mononuclear cells (1×10^5 /0.2 ml/well) were incubated with different concentrations of Staphylococcus aureus cowan (1:[…] and 1:10,000 dilutions) in the presence and absence of 6-amino-(2-deoxy-α-D-erythro-pentofuranosyl)-imidazo[4,5,-C]pyridin- 4-one for 4 days. The cultures were pulsed with [^3 H]-thymidine and then the incorporation of [^3 H]thymidine was measured.
To further evaluate the effect on B cell response, human peripheral blood mononuclear cells were cultured with Staphylococcus aureus cowan in the presence and absence of 6-amino-(2-deoxy-α-D-erythro-pentofuranosyl)-imidazo[4,5,-C]pyridin- 4-one.

[3] = system: human mixed lymphocyte culture; experiment: Mixed lymphocyte response / culture (alloantigens); format: cell-based
Description: as §1
Peripheral blood mononuclear cells (1×10^5 /0.2 ml/well) from donor-A were cultured together with different numbers of peripheral blood mononuclear cells ([…]) of peripheral blood mononuclear cells from the other donor for 96 hr as previously described above for the lymphocyte response to plant mitogens. Cultures were pulsed with [^3 H]-thymidinefor additional 16 hrs.

[4] = system: B target cells (PHA induced lymphoblasts of donor B); experiment: Generation of antigen-specific primary cytotoxic T lymphocytes, 51Cr release, target B; format: cell-based, human; conditions: for % Specific Cytotoxicity: Exp. 1, A + Bx, no compound 7
Description: Peripheral blood mononuclear cells from healthy donor A and C were cultured together with irradiated (3000 R) peripheral blood mononuclear cells from donor B and irradiated cells (SX) from B cells of the SB cell line, respectively, for five days. At the end of the incubation period, the cells were washed and resuspended in medium and then their cytotoxic activity was determined against the specific lymphoblast target cell B or S according to the procedure of Sharma and Gupta noted above.

[5] = donor 1, Con A 0.25 mg/0.2 ml, compound (0.05)
[6] = donor 1, Con A 1.0 mg/0.2 ml, compound (0.006)
[7] = donor 1, Con A 4.0 mg/0.2 ml, compound (0.038)
[8] = donor 2, Con A 0.13 mg/0.2 ml, compound (0.2)
[9] = donor 2, Con A 0.13 mg/0.2 ml, compound (0.4)
[10] = donor 2, Con A 0.25 mg/0.2 ml, compound (0.2)
[11] = donor 2, Con A 0.25 mg/0.2 ml, compound (0.4)
[12] = donor 2, Con A 2.0 mg/0.2 ml, compound (0.025)
[13] = donor 3, Con A 0.13 mg/0.2 ml, compound (0.0125)
[14] = donor 3, Con A 0.13 mg/0.2 ml, compound (0.4)
[15] = donor 3, Con A 0.25 mg/0.2 ml, compound (0.05)
[16] = donor 3, Con A 0.25 mg/0.2 ml, compound (0.4)
[17] = donor 3, Con A 2.0 mg/0.2 ml, compound (0.05)
[18] = donor 3, Con A 2.0 mg/0.2 ml, compound (O.4)
[19] = donor 4, Con A 0.05 mg/0.2 ml, compound (0.025)
[20] = donor 4, Con A 0.13 mg/0.2 ml, compound (0.05)
[21] = donor 4, Con A 0.25 mg/0.2 ml, compound (0.05)
[22] = donor 5, Con A 0.5 mg/0.2 ml, compound (0.05)
[23] = donor 5, Con A 2.0 mg/0.2 ml, compound (0.025)

Nc1cc2c(ncn2[C@@H]2C[C@H](O)[C@@H](CO)O2)c(O)n1 [Test Compound, 6-amino-1-(2-deoxy-α-D-erythro-pentofuranosyl)imidazo[4,5-C]-pyridin-4-one]
increase in lymphocyte response to Concanavalin A [1]: marked increase | mean increase of Con A response ([1]; Table IV): 109% | suppressive effect on Con A response ([1]; Table IV): slight suppressive effect in only one case | 3H-thymidine incorporation in Con A-stimulated cultures [1, 5]: 49279 ± 2732 | % Potentiation [1, 5]: 32% | 3H-thymidine incorporation in Con A-stimulated cultures [1, 6]: 71105 ± 4015 | % Potentiation [1, 6]: 34% | 3H-thymidine incorporation in Con A-stimulated cultures [1, 7]: 99322 ± 8655 | % Potentiation [1, 7]: 43% | 3H-thymidine incorporation in Con A-stimulated cultures [1, 8]: 18607 ± 2157 | % Potentiation [1, 8]: 318% | 3H-thymidine incorporation in Con A-stimulated cultures [1, 9]: 31068 ± 2678 | % Potentiation [1, 9]: 599% | 3H-thymidine incorporation in Con A-stimulated cultures [1, 10]: 44958 ± 2248 | % Potentiation [1, 10]: 203% | 3H-thymidine incorporation in Con A-stimulated cultures [1, 11]: 48354 ± 3336 | % Potentiation [1, 11]: 226% | 3H-thymidine incorporation in Con A-stimulated cultures [1, 12]: 162317 ± 10872 | % Potentiation [1, 12]: 29% | 3H-thymidine incorporation in Con A-stimulated cultures [1, 13]: 29693 ± 4998 | % Potentiation [1, 13]: 50% | 3H-thymidine incorporation in Con A-stimulated cultures [1, 14]: 39902 ± 2918 | % Potentiation [1, 14]: 102% | 3H-thymidine incorporation in Con A-stimulated cultures [1, 15]: 57780 ± 9762 | % Potentiation [1, 15]: 36% | 3H-thymidine incorporation in Con A-stimulated cultures [1, 16]: 51010 ± 3861 | % Potentiation [1, 16]: 20% | 3H-thymidine incorporation in Con A-stimulated cultures [1, 17]: 122692 ± 3643 | % Potentiation [1, 17]: 12% | 3H-thymidine incorporation in Con A-stimulated cultures [1, 18]: 98613 ± 4737 | % Potentiation [1, 18]: -11% | 3H-thymidine incorporation in Con A-stimulated cultures [1, 19]: 43957 ± 6053 | % Potentiation [1, 19]: 54% | 3H-thymidine incorporation in Con A-stimulated cultures [1, 20]: 44234 ± 5027 | % Potentiation [1, 20]: 110% | 3H-thymidine incorporation in Con A-stimulated cultures [1, 21]: 39059 ± 5098 | % Potentiation [1, 21]: 49% | 3H-thymidine incorporation in Con A-stimulated cultures [1, 22]: 71303 ± 3633 | % Potentiation [1, 22]: 33% | 3H-thymidine incorporation in Con A-stimulated cultures [1, 23]: 75046 ± 1495 | % Potentiation [1, 23]: 16% | suppression of SAC induced B cell proliferation [2]: slight suppression of B cell proliferation in some cases | 3H-thymidine incorporation ([2]; SAC 1:100, 0.0125 mM): 31582 ± 5535 | 3H-thymidine incorporation ([2]; SAC 1:100, 0.025 mM): 30876 ± 1757 | 3H-thymidine incorporation ([2]; SAC 1:100, 0.05 mM): 31036 ± 2225 | 3H-thymidine incorporation ([2]; SAC 1:100, 0.6 mM): 31549 ± 1496 | 3H-thymidine incorporation ([2]; SAC 1:1000, 0.0125 mM): 18079 ± 829 | 3H-thymidine incorporation ([2]; SAC 1:1000, 0.025 mM): 18897 ± 1334 | 3H-thymidine incorporation ([2]; SAC 1:1000, 0.05 mM): 17240 ± 1634 | 3H-thymidine incorporation ([2]; SAC 1:1000, 0.2 mM): 16618 ± 2378 | augmenting effect on SAC induced B cell proliferation ([2]; listed as 6-Amino-(2-deoxy-α-D-erythro-pentofuranosyl)-imidazo[4,5,-C]pyridin-4-one): neither an effect on Staphylococcus aureus cowan induced B cell proliferation; also recorded: no augmenting effect | effect on mixed lymphocyte response ([3]; 2-way mixed lymphocyte culture): markedly increased the mixed lymphocyte response in a dose dependent manner in most of the cases | maximal increase of mixed lymphocyte response ([3]; 2-way mixed lymphocyte culture): 91% | 3H-thymidine incorporation in MLC ([3]; A + B (0.5 × 10^5), 0.0125 mM): 14814 ± 929 CPM | 3H-thymidine incorporation in MLC ([3]; A + B (0.5 × 10^5), 0.025 mM): 18978 ± 1048 CPM | 3H-thymidine incorporation in MLC ([3]; A + B (0.5 × 10^5), 0.05 mM): 21399 ± 1759 CPM | 3H-thymidine incorporation in MLC ([3]; A + B (0.5 × 10^5), 0.2 mM): 22448 ± 1609 CPM | 3H-thymidine incorporation in MLC ([3]; A + B (0.5 × 10^5), 0.4 mM): 21593 ± 3007 CPM | 3H-thymidine incorporation in MLC ([3]; A + B (1 × 10^5), 0.0125 mM): 26858 ± 2392 CPM | 3H-thymidine incorporation in MLC ([3]; A + B (1 × 10^5), 0.025 mM): 21794 ± 7136 CPM | 3H-thymidine incorporation in MLC ([3]; A + B (1 × 10^5), 0.05 mM): 33532 ± 1732 CPM | 3H-thymidine incorporation in MLC ([3]; A + B (1 × 10^5), 0.2 mM): 30790 ± 1912 CPM | 3H-thymidine incorporation in MLC ([3]; A + B (1 × 10^5), 0.4 mM): 30261 ± 1835 CPM | 3H-thymidine incorporation in MLC ([3]; A + B (2 × 10^5), 0.0125 mM): 18608 ± 2511 CPM | 3H-thymidine incorporation in MLC ([3]; A + B (2 × 10^5), 0.025 mM): 23548 ± 4439 CPM | 3H-thymidine incorporation in MLC ([3]; A + B (2 × 10^5), 0.05 mM): 25299 ± 4479 CPM | 3H-thymidine incorporation in MLC ([3]; A + B (2 × 10^5), 0.2 mM): 29209 ± 2804 CPM | 3H-thymidine incorporation in MLC ([3]; A + B (2 × 10^5), 0.4 mM): 27940 ± 3679 CPM | 3H-thymidine incorporation in MLC ([3]; B + A (0.5 × 10^5), 0.0125 mM): 17045 ± 982 CPM | 3H-thymidine incorporation in MLC ([3]; B + A (0.5 × 10^5), 0.025 mM): 19538 ± 3053 CPM | 3H-thymidine incorporation in MLC ([3]; B + A (0.5 × 10^5), 0.05 mM): 20799 ± 1068 CPM | 3H-thymidine incorporation in MLC ([3]; B + A (0.5 × 10^5), 0.2 mM): 19346 ± 20799 CPM | 3H-thymidine incorporation in MLC ([3]; B + A (0.5 × 10^5), 0.4 mM): 13779 ± 3043 CPM | 3H-thymidine incorporation in MLC ([3]; B + A (2 × 10^5), 0.0125 mM): 18538 ± 1601 CPM | 3H-thymidine incorporation in MLC ([3]; B + A (2 × 10^5), 0.025 mM): 22129 ± 3893 CPM | 3H-thymidine incorporation in MLC ([3]; B + A (2 × 10^5), 0.05 mM): 24362 ± 2936 CPM | 3H-thymidine incorporation in MLC ([3]; B + A (2 × 10^5), 0.2 mM): 27737 ± 2105 CPM | 3H-thymidine incorporation in MLC ([3]; B + A (2 × 10^5), 0.4 mM): 28986 ± 1448 CPM | % Specific Cytotoxicity ([4]; compound (0.05)): 9% | % Specific Cytotoxicity ([4]; compound (0.1)): 22% | % Specific Cytotoxicity ([4]; compound (0.2)): 26% | cytotoxic T lymphocyte activity ([4]; specific fresh phytohemagglutinin induced lymphoblasts): increased
